Converted amounts (≈) assume the structure as drawn. Structures can show the parent of a compound that is named as a salt. Where two headings read alike, the source gives them in different places.
Key:
Assay type in all cases: cell-based
[1] = system: Bacillus subtilis ATCC 6633; assay: Broth microdilution MIC, B. subtilis ATCC 6633; details: read-out: MIC B. subtilis ATCC 6633
Method in brief: (§1)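 Broth microdilution in strain-specific test medium with ~5.0×10^5 cfu/ml inoculum, 1% DMSO and two-fold compound dilutions from 64 to 0.0625 μg/ml. Plates were held 20 hours at 37° C in ambient air. S. pneumoniae colonies were grown beforehand on blood agar in 5% CO2.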

[2] = system: Escherichia coli ATCC 25922; assay: Broth microdilution MIC, E. coli ATCC 25922 (MHIIB w & w/o 4 mM EDTA); details: for MIC: Escherichia coli, read-out: MIC E. coli ATCC 25922; for MIC E. coli ATCC 25922 + 4 mM EDTA: with 4 mM EDTA
Method in brief: as §1

[3] = system: Staphylococcus aureus ATCC 29213 (MSSA); assay: Broth microdilution MIC, S. aureus ATCC 29213 (MSSA); details: read-out: MIC S. aureus ATCC 29213 (MSSA)
Method in brief: as §1

[4] = system: Enterococcus faecium ATCC 700221 (VRE); assay: Broth microdilution MIC, E. faecium ATCC 700221 (VRE); set-up: MIC E. faecium ATCC 700221 (VRE): unit: ug/mL; details: broth microdilution, 37° C., 20 hours; for MIC: Enterococcus faecium, read-out: MIC E. faecium ATCC 700221 (VRE)
Method in brief: as §1

[5] = system: Streptococcus pneumoniae ATCC 49619; assay: Broth microdilution MIC, S. pneumoniae ATCC 49619; details: read-out: MIC S. pneumoniae ATCC 49619
Method in brief: as §1

[6] = system: Enterococcus faecalis ATCC 29212; assay: Broth microdilution MIC, E. faecalis ATCC 29212; details: read-out: MIC E. faecalis ATCC 29212
Method in brief: as §1

[7] = system: Staphylococcus aureus NRS384 (MRSA); assay: Broth microdilution MIC, S. aureus NRS384 (MRSA); set-up: MIC NRS 384 (MRSA): unit not given here; details: broth microdilution, 37° C., 20 hours; for MIC: Staphylococcus aureus, read-out: MIC NRS 384 (MRSA)
Method in brief: as §1

[8] = ATCC6633, broth microdilution, 37° C., 20 hours
[9] = ATCC25922, without EDTA, broth microdilution, 37° C., 20 hours
[10] = broth microdilution, 37° C., 20 hours
[11] = ATCC49619, broth microdilution, 37° C., 20 hours
[12] = ATCC29212, broth microdilution, 37° C., 20 hours

Row | SMILES | MIC [1, 8] [µg/mL] | MIC [2, 9] [µg/mL] | MIC [3, 10] [µg/mL] | MIC [4] [µg/mL] | MIC [5, 11] [µg/mL] | MIC [6, 12] [µg/mL] | MIC [7] [µg/mL] | MIC E. coli ATCC 25922 + 4 mM EDTA [2, 10] | MIC ([1]; ATCC6633, 20 h) [µg/mL] | MIC ([2]; ATCC25922, 20 h) [µg/mL] | MIC ([3]; 20 h) [µg/mL] | MIC E. faecium ATCC 700221 (VRE) [4] | MIC ([5]; ATCC49619, 20 h) [µg/mL] | MIC ([6]; ATCC29212, 20 h) [µg/mL] | MIC NRS 384 (MRSA) [7]
1 | Cl.O=c1[nH]c(NCc2ccc(Cl)c(Cl)c2)nc2cnn(CC3CCCNC3)c12 (stereo not drawn) [Compound 154, 5-((3,4-dichlorobenzyl)amino)-1-(piperidin-3-ylmethyl)-1H-pyrazolo[4,3-d]pyrimidin-7(6H)-one hydrochloride] | 8 | > 64 | 32 | 32 | 4 | 32 | 32 | 32 µg/mL | – | – | – | – | – | – | –
2 | O=C(Cn1ncc2nc(NCc3ccc(Cl)c(Cl)c3)[nH]c(=O)c21)N1CCOCC1 [Compound 158, 5-((3,4-dichlorobenzyl)amino)-1-(2-morpholino-2-oxoethyl)-1H-pyrazolo[4,3-d]pyrimidin-7(6H)-one] | 8 (≈ 18.3 µM) | > 64 | 16 (≈ 36.6 µM) | 8 (≈ 18.3 µM) | 4 (≈ 9.15 µM) | 16 (≈ 36.6 µM) | 32 (≈ 73.2 µM) | >64 µg/mL | – | – | – | – | – | – | –
3 | O=c1[nH]c(NCc2ccc(Cl)c(Cl)c2)nc2cnn(C3CCN(c4ccncc4)CC3)c12 [Compound 162, 5-((3,4-dichlorobenzyl)amino)-1-(1-(pyridin-4-yl)piperidin-4-yl)-1H-pyrazolo[4,3-d]pyrimidin-7(6H)-one dihydrochloride] | – | – | – | – | – | – | – | 8 µg/mL | 1 | > 64 | 4 | 2/2 | 2 | 4 | 2/4
4 | O=c1[nH]c(NCc2ccc(Cl)c(Cl)c2)nc2cnn(C3CCN(c4cccnc4)CC3)c12 [Compound 163, 5-((3,4-dichlorobenzyl)amino)-1-(1-(pyridin-3-yl)piperidin-4-yl)-1H-pyrazolo[4,3-d]pyrimidin-7(6H)-one dihydrochloride] | – | – | – | – | – | – | – | >64 µg/mL | 0.5 | > 64 | 2 | 2/2 | 8 | > 64 | 2/2
5 | O=c1[nH]c(NCc2ccc(Cl)c(Cl)c2)nc2cnn(CCS(=O)(=O)CCO)c12 [Compound 164, 5-((3,4-dichlorobenzyl)amino)-1-(2-((2-hydroxyethyl)sulfonyl)ethyl)-1H-pyrazolo[4,3-d]pyrimidin-7(6H)-one] | 16 (≈ 35.8 µM) | > 64 | 32 (≈ 71.7 µM) | 16 (≈ 35.8 µM) | 4 (≈ 8.96 µM) | 32 (≈ 71.7 µM) | 64 (≈ 143 µM) | >64 µg/mL | – | – | – | – | – | – | –
6 | CS(=O)(=O)NC(=O)Cn1ncc2nc(NCc3ccc(Cl)c(Cl)c3)[nH]c(=O)c21 [Compound 165, 2-(5-((3,4-dichlorobenzyl)amino)-7-oxo-6,7-dihydro-1H-pyrazolo[4,3-d]pyrimidin-1-yl)-N-(methylsulfonyl)acetamide] | > 64 | > 64 | > 64 | > 64 | > 64 | > 64 | > 64 | >64 µg/mL | – | – | – | – | – | – | –
7 | O=c1[nH]c(NCc2ccc(Cl)c(Cl)c2)nc2cnn(CCOCCCO)c12 [Compound 168, 5-[(3,4-dichlorophenyl)methylamino]-1-[2-(3-hydroxypropoxy)ethyl]-6H-pyrazolo[4,3-d]pyrimidin-7-one] | 4 (≈ 9.7 µM) | > 64 | 8 (≈ 19.4 µM) | 4 (≈ 9.7 µM) | 8 (≈ 19.4 µM) | 8 (≈ 19.4 µM) | 8 (≈ 19.4 µM) | >64 µg/mL | – | – | – | – | – | – | –

Further lines, with some results ahead:

Row | MIC [1, 8] [µg/mL] | MIC [2, 9] [µg/mL] | MIC [3, 10] [µg/mL] | MIC [4] [µg/mL] | MIC [5, 11] [µg/mL] | MIC [6, 12] [µg/mL] | MIC [7] [µg/mL] | MIC E. coli ATCC 25922 + 4 mM EDTA [2, 10] | SMILES | MIC ([1]; ATCC6633, 20 h) [µg/mL] | MIC ([2]; ATCC25922, 20 h) [µg/mL] | MIC ([3]; 20 h) [µg/mL] | MIC E. faecium ATCC 700221 (VRE) [4] | MIC ([5]; ATCC49619, 20 h) [µg/mL] | MIC ([6]; ATCC29212, 20 h) [µg/mL] | MIC NRS 384 (MRSA) [7]
8 | 2 (≈ 4.05 µM) | > 64 | 8 (≈ 16.2 µM) | 2 (≈ 4.05 µM) | 16 (≈ 32.4 µM) | 4 (≈ 8.11 µM) | 4 (≈ 8.11 µM) | – | CC(C)(C)OC(=O)N1CCC(n2ncc3nc(NCc4ccc(Cl)c(Cl)c4)[nH]c(=O)c32)CC1 [Compound 153, Tert-butyl 4-(5-((3,4-dichlorobenzyl)amino)-7-oxo-6,7-dihydro-1H-pyrazolo[4,3-d]pyrimidin-1-yl)piperidine-1-carboxylate] | – | – | – | – | – | – | –
9 | 4 | > 64 | 32 | 32 | 8 | 64 | 64 | >64 µg/mL | Cl.O=c1[nH]c(NCc2ccc(Cl)c(Cl)c2)nc2cnn(CC3CCNC3)c12 (stereo not drawn) [Compound 155, 5-((3,4-dichlorobenzyl)amino)-1-(pyrrolidin-3-ylmethyl)-1H-pyrazolo[4,3-d]pyrimidin-7(6H)-one hydrochloride] | – | – | – | – | – | – | –
10 | 1 | > 64 | 2 | 1 | 4 | > 64 | 2 | >64 µg/mL | Cl.O=c1[nH]c(NCc2ccc(Cl)c(Cl)c2)nc2cnn(C3CCN(S(=O)(=O)c4cccnc4)CC3)c12 [Compound 156, 5-((3,4-dichlorobenzyl)amino)-1-(1-(pyridin-3-ylsulfonyl)piperidin-4-yl)-1H-pyrazolo[4,3-d]pyrimidin-7(6H)-one hydrochloride] | – | – | – | – | – | – | –
11 | 2 | > 64 | 8 | 2 | 4 | 8 | 4 | 64 µg/mL | COCCN1CCC(n2ncc3nc(NCc4ccc(Cl)c(Cl)c4)[nH]c(=O)c32)CC1.Cl [Compound 157, 5-((3,4-dichlorobenzyl)amino)-1-(1-(2-methoxyethyl)piperidin-4-yl)-1H-pyrazolo[4,3-d]pyrimidin-7(6H)-one hydrochloride] | – | – | – | – | – | – | –
12 | 2 (≈ 4.75 µM) | > 64 | 8 (≈ 19 µM) | 2 (≈ 4.75 µM) | 2 (≈ 4.75 µM) | 8 (≈ 19 µM) | 8 (≈ 19 µM) | >64 µg/mL | CN1CC(Cn2ncc3nc(NCc4ccc(Cl)c(Cl)c4)[nH]c(=O)c32)CC1=O (stereo not drawn) [Compound 159, 5-((3,4-dichlorobenzyl)amino)-1-((1-methyl-5-oxopyrrolidin-3-yl)methyl)-1H-pyrazolo[4,3-d]pyrimidin-7(6H)-one] | – | – | – | – | – | – | –
13 | 4 | > 64 | 16 | 8 | 4 | 16 | 16 | 64 µg/mL | Cl.O=c1[nH]c(NCc2ccc(Cl)c(Cl)c2)nc2cnn(CCOCCN3CCOCC3)c12 [Compound 160, 5-((3,4-dichlorobenzyl)amino)-1-(2-(2-morpholinoethoxy)ethyl)-1H-pyrazolo[4,3-d]pyrimidin-7(6H)-one hydrochloride] | – | – | – | – | – | – | –
14 | 2 | > 64 | 8 | 2 | 16 | > 64 | 4 | >64 µg/mL | Cl.Cl.O=c1[nH]c(NCc2ccc(Cl)c(Cl)c2)nc2cnn(C3CCN(c4ccccn4)CC3)c12 [Compound 161, 5-((3,4-dichlorobenzyl)amino)-1-(1-(pyridin-2-yl)piperidin-4-yl)-1H-pyrazolo[4,3-d]pyrimidin-7(6H)-one dihydrochloride] | – | – | – | – | – | – | –
15 | 4 (≈ 7.06 µM) | > 64 | > 64 | 8 (≈ 14.1 µM) | 16 (≈ 28.2 µM) | > 64 | > 64 | >64 µg/mL | CC(C)(C)OC(=O)N1CCN(CCOCCn2ncc3nc(NCc4ccc(Cl)c(Cl)c4)[nH]c(=O)c32)CC1 [Compound 166, tert-butyl 4-[2-[2-[5-[(3,4-dichlorophenyl)methylamino]-7-oxo-6H-pyrazolo[4,3-d]pyrimidin-1-yl]ethoxy]ethyl]piperazine-1-carboxylate] | – | – | – | – | – | – | –
16 | 2 (≈ 4.85 µM) | > 64 | 8 (≈ 19.4 µM) | 4 (≈ 9.7 µM) | 8 (≈ 19.4 µM) | 8 (≈ 19.4 µM) | 8 (≈ 19.4 µM) | >64 µg/mL | O=c1[nH]c(NCc2ccc(Cl)c(Cl)c2)nc2cnn(CCCOCCO)c12 [Compound 169, 5-[(3,4-dichlorophenyl)methylamino]-1-[3-(2-hydroxyethoxy)propyl]-6H-pyrazolo[4,3-d]pyrimidin-7-one] | – | – | – | – | – | – | –
17 | 1 | > 64 | 4 | – | 8 | 4 | – | >64. ug/ml | Cl.O=c1[nH]c(NCc2ccc(Cl)c(Cl)c2)nc2cnn(CCOc3cccnc3)c12 [Compound 170, 5-((3,4-dichlorobenzyl)amino)-1-(2-(pyridin-3-yloxy)ethyl)-1H-pyrazolo[4,3-d]pyrimidin-7(6H)-one hydrochloride] | – | – | – | 4/1 | – | – | 2/2
